# In ChEMBL document CHEMBL1201862, “PubChem BioAssay data set” (2004):
#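 Values below derive from 48-hour exposures of cells grown in 96-well plates, with endpoints linearly interpolated between the two concentrations bracketing the appropriate inhibition level. At the GI50, growth is halved.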 The source made the active and inactive calls. Cut-off read from the data, not from the text of the source: active = GI50 up to about 1.1 µM and inactive = higher.
# Key:
# Assay in all cases: growth of human tumour cells (NCI), 48 h
# HCC 2998 = test system: HCC 2998
# UACC-62 = test system: UACC-62
# SK-OV-3 = test system: SK-OV-3
# HOP-92 = test system: HOP-92
# CAKI-1 = test system: CAKI-1
# COLO 205 = test system: COLO 205
# OVCAR-8 = test system: OVCAR-8
# OVCAR-3 = test system: OVCAR-3
# HCT-15 = test system: HCT-15
# NCI-H23 = test system: NCI-H23
# U-251 = test system: U-251
# M14 = test system: M14
# SK-MEL-5 = test system: SK-MEL-5
# MOLT-4 = test system: MOLT-4
# RXF 393 = test system: RXF 393
# NCI-H522 = test system: NCI-H522
SMILES,GI50 (HCC 2998),GI50 (UACC-62),GI50 (SK-OV-3),GI50 (HOP-92),GI50 (CAKI-1),GI50 (COLO 205),GI50 (OVCAR-8),GI50 (OVCAR-3),GI50 (HCT-15) [µM],GI50 (NCI-H23),GI50 (U-251),GI50 (M14),GI50 (SK-MEL-5),GI50 (MOLT-4),GI50 (RXF 393),GI50 (NCI-H522)
CCOCN1COCN(C)C1=O,> 100 µM (inactive),> 100 µM (inactive),> 100 µM (inactive),> 100 µM (inactive),> 100 µM (inactive),> 100 µM (inactive),> 100 µM (inactive),> 100 µM (inactive),> 100,> 100 µM (inactive),> 100 µM (inactive),> 100 µM (inactive),> 100 µM (inactive),,,
COc1ccc(C(=O)/C(=N/Nc2ccccc2)c2ccc(OC)cc2)cc1,> 100 µM (inactive),13.3 µM (inactive),61.2 µM (inactive),,> 100 µM (inactive),> 100 µM (inactive),> 100 µM (inactive),,8.55,> 100 µM (inactive),> 100 µM (inactive),,> 100 µM (inactive),9.66 µM (inactive),31.9 µM (inactive),80.4 µM (inactive)
COc1cc(OC)c(OC)cc1/C=N/NC(=O)N/N=C/c1cc(OC)c(OC)cc1OC,,> 100 µM (inactive),> 100 µM (inactive),49.9 µM (inactive),,> 100 µM (inactive),91 µM (inactive),> 100 µM (inactive),> 100,> 100 µM (inactive),> 100 µM (inactive),> 100 µM (inactive),> 100 µM (inactive),> 100 µM (inactive),,17.5 µM (inactive)
Cc1ccc(/C=C/C(=O)C(C)(C)CN2CCCCC2)cc1,15 µM (inactive),11.1 µM (inactive),11 µM (inactive),,3.78 µM (inactive),3.66 µM (inactive),2.81 µM (inactive),2.81 µM (inactive),3.76,11.5 µM (inactive),13.7 µM (inactive),7.31 µM (inactive),2.86 µM (inactive),2.47 µM (inactive),5.11 µM (inactive),3.33 µM (inactive)
O=C(O/C(=C(/N=N/c1ccccc1)c1ccccc1)c1ccccc1)c1ccccc1,> 100 µM (inactive),> 100 µM (inactive),> 100 µM (inactive),82 µM (inactive),> 100 µM (inactive),,> 100 µM (inactive),,> 100,> 100 µM (inactive),> 100 µM (inactive),,> 100 µM (inactive),> 100 µM (inactive),> 100 µM (inactive),> 100 µM (inactive)
Cn1c(=O)nc2n(-c3cc(Cl)ccc3Cl)c3ccccc3nc-2c1=O,2.68 µM (inactive),1.61 µM (inactive),28 µM (inactive),,7.19 µM (inactive),1.82 µM (inactive),3.34 µM (inactive),2.95 µM (inactive),3.8,0.299 µM (active),6.4 µM (inactive),3.63 µM (inactive),1.95 µM (inactive),8.02 µM (inactive),14.8 µM (inactive),5.31 µM (inactive)
CC(/C=C/c1ccccc1)=N\N=C(C)\C=C\c1ccccc1,> 100 µM (inactive),,> 100 µM (inactive),,,> 10 µM (inactive),> 100 µM (inactive),> 100 µM (inactive),> 100,> 100 µM (inactive),> 100 µM (inactive),> 100 µM (inactive),> 100 µM (inactive),> 100 µM (inactive),,> 100 µM (inactive)
Oc1ccc(I)c2cccnc12,,,5.07 µM (inactive),15.9 µM (inactive),,27.2 µM (inactive),3.66 µM (inactive),4.82 µM (inactive),4.19,8.38 µM (inactive),6.78 µM (inactive),10.4 µM (inactive),,2.96 µM (inactive),6.82 µM (inactive),1.94 µM (inactive)
CC(=O)N(C)c1ccc2ncccc2c1[N+](=O)[O-],> 100 µM (inactive),> 100 µM (inactive),,> 100 µM (inactive),> 100 µM (inactive),,> 100 µM (inactive),> 100 µM (inactive),> 100,> 100 µM (inactive),,> 100 µM (inactive),> 100 µM (inactive),> 100 µM (inactive),> 100 µM (inactive),
COc1ccc(C#CCC(OC2OC(CO)C(O)C(O)C2O)C(O)c2ccc(OC)c(OC)c2)cc1OC (centres undefined),> 100 µM (inactive),61.7 µM (inactive),> 100 µM (inactive),,> 100 µM (inactive),> 100 µM (inactive),> 100 µM (inactive),> 100 µM (inactive),> 100,> 100 µM (inactive),> 100 µM (inactive),> 100 µM (inactive),> 100 µM (inactive),> 100 µM (inactive),> 100 µM (inactive),> 100 µM (inactive)
CC1CCC[P+](Cc2ccccc2)(c2ccccc2)CC1 (centres undefined),29.1 µM (inactive),25 µM (inactive),> 100 µM (inactive),,,40.4 µM (inactive),59.8 µM (inactive),,> 100,27.2 µM (inactive),77.4 µM (inactive),35.9 µM (inactive),14.5 µM (inactive),78.5 µM (inactive),23.1 µM (inactive),
CCN(CC)/[N+]([O-])=N/OCC(C)O (centres undefined),> 100 µM (inactive),> 100 µM (inactive),> 100 µM (inactive),> 100 µM (inactive),> 100 µM (inactive),,> 100 µM (inactive),> 100 µM (inactive),> 100,> 100 µM (inactive),> 100 µM (inactive),> 100 µM (inactive),> 100 µM (inactive),> 100 µM (inactive),> 100 µM (inactive),> 100 µM (inactive)
COP(=O)(CC(=O)C1OC(C)(C)OC1C(O)COCc1ccccc1)OC (centres undefined),> 100 µM (inactive),> 100 µM (inactive),,> 100 µM (inactive),> 100 µM (inactive),> 100 µM (inactive),> 100 µM (inactive),> 100 µM (inactive),> 100,> 100 µM (inactive),> 100 µM (inactive),> 100 µM (inactive),46.2 µM (inactive),> 100 µM (inactive),> 100 µM (inactive),
O=C(N/C(=C\c1cc(Cl)ccc1Cl)c1nc2ccccc2[nH]1)c1ccccc1,17.9 µM (inactive),38.9 µM (inactive),> 100 µM (inactive),8.41 µM (inactive),30.8 µM (inactive),,19.2 µM (inactive),36.3 µM (inactive),24,23.8 µM (inactive),29.7 µM (inactive),27.9 µM (inactive),21.7 µM (inactive),14.9 µM (inactive),21.3 µM (inactive),29.1 µM (inactive)
COC1OC(CO)C(O)C1N (centres undefined),,> 100 µM (inactive),> 100 µM (inactive),> 100 µM (inactive),> 100 µM (inactive),> 100 µM (inactive),> 100 µM (inactive),> 100 µM (inactive),> 100,> 100 µM (inactive),> 100 µM (inactive),> 100 µM (inactive),> 100 µM (inactive),> 100 µM (inactive),> 100 µM (inactive),> 100 µM (inactive)
C[C@@]12CCCc3coc(c31)C(=O)c1cc3c(cc12)C(=O)C=CC3=O [XESTOQUINONE],28.1 µM (inactive),17.4 µM (inactive),,4.52 µM (inactive),14.9 µM (inactive),,15.5 µM (inactive),20.2 µM (inactive),17.7,16 µM (inactive),31.3 µM (inactive),16.1 µM (inactive),16.7 µM (inactive),1.96 µM (inactive),14.9 µM (inactive),7.06 µM (inactive)
[C-]#[N+]C(C)(C)C[C@H]1CC(C)C2CCC(C)C3([N+]#[C-])CCC(=C)C1[C@H]23 (some centres undefined),5.83 µM (inactive),2.82 µM (inactive),3.69 µM (inactive),0.106 µM (active),3.19 µM (inactive),0.166 µM (active),0.227 µM (active),2.36 µM (inactive),,0.509 µM (active),1.51 µM (inactive),1.95 µM (inactive),2.67 µM (inactive),0.316 µM (active),0.294 µM (active),1.95 µM (inactive)
CCOC(=O)c1nc2ccc(Cl)cc2c2c1Cc1ccccc1-2,> 100 µM (inactive),> 100 µM (inactive),,,> 100 µM (inactive),> 100 µM (inactive),> 100 µM (inactive),> 100 µM (inactive),> 100,> 100 µM (inactive),> 100 µM (inactive),> 100 µM (inactive),> 100 µM (inactive),> 100 µM (inactive),19.7 µM (inactive),90.8 µM (inactive)
Cc1c(Cl)cccc1NC(=O)C(=O)C(C(=O)c1ccccc1-c1ccccc1)C1OC(=O)c2ccccc21 (centres undefined),17.1 µM (inactive),17.9 µM (inactive),43 µM (inactive),15.2 µM (inactive),,20.2 µM (inactive),25.5 µM (inactive),16 µM (inactive),,14.5 µM (inactive),13.5 µM (inactive),17 µM (inactive),15.7 µM (inactive),14.3 µM (inactive),12.6 µM (inactive),12.5 µM (inactive)
NNC(=O)N/N=C1\C(=O)N(c2nccs2)C(=O)C(=O)C1c1nc2ccccc2s1 (centres undefined),> 100 µM (inactive),> 100 µM (inactive),> 100 µM (inactive),> 100 µM (inactive),> 100 µM (inactive),> 100 µM (inactive),> 100 µM (inactive),> 100 µM (inactive),> 100,> 100 µM (inactive),> 100 µM (inactive),> 100 µM (inactive),,,> 100 µM (inactive),
